Data published in PubChem BioAssay AID248 (DTP/NCI, 2004).
Where “and” joins values, the source holds several entries; their conditions need not be identical. Identical values can stand only once. Inconclusive results and toxic doses are left out. Rule as the data show it: active = T/C of 150% or more; inactive = T/C below 125%.

Tested on: L1210 leukemia ip in BDF1 mice, survival T/C
Experiment: NCI In Vivo Anticancer Drug Screen. Data for tumor model L1210 Leukemia (intraperitoneal) in B6D2F1 (BDF1) mice
Settings: endpoint: mean survival time, higher = longer survival
Method in brief: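 In this screen, tumor-bearing mice given compound are compared to those given vehicle, and their survival values are reported as a treated-to-control quotient.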

[1] = dose: 100.0 mg/kg/injection, schedule: Q01DX001 (ip), vehicle: saline
[2] = dose: 200.0 mg/kg/injection, schedule: Q01DX001 (ip), vehicle: saline
[3] = dose: 400.0 mg/kg/injection, schedule: Q01DX001 (ip), vehicle: saline
[4] = dose: 50.0 mg/kg/injection, schedule: Q01DX009 (ip), vehicle: Klucel (hydroxypropylcellulose) (HPC)
[5] = dose: 100.0 mg/kg/injection, schedule: Q01DX009 (ip), vehicle: Klucel (hydroxypropylcellulose) (HPC)
[6] = dose: 200.0 mg/kg/injection, schedule: Q01DX009 (ip), vehicle: Klucel (hydroxypropylcellulose) (HPC)
[7] = dose: 400.0 mg/kg/injection, schedule: Q01DX009 (ip), vehicle: Klucel (hydroxypropylcellulose) (HPC)
[8] = dose: 100.0 mg/kg/injection, schedule: Q01DX009 (ip), vehicle: saline with Tween-80
[9] = dose: 200.0 mg/kg/injection, schedule: Q01DX009 (ip), vehicle: saline with Tween-80
[10] = dose: 400.0 mg/kg/injection, schedule: Q01DX009 (ip), vehicle: saline with Tween-80
[11] = dose: 100.0 mg/kg/injection, schedule: Q04DX002 (ip), vehicle: saline
[12] = dose: 200.0 mg/kg/injection, schedule: Q04DX002 (ip), vehicle: saline
[13] = dose: 100.0 mg/kg/injection, schedule: Q01DX001 (ip), vehicle: carboxymethylcellulose (CMC)
[14] = dose: 200.0 mg/kg/injection, schedule: Q01DX001 (ip), vehicle: carboxymethylcellulose (CMC)
[15] = dose: 100.0 mg/kg/injection, schedule: Q04DX003 (ip), vehicle: Klucel (hydroxypropylcellulose) (HPC)
[16] = dose: 200.0 mg/kg/injection, schedule: Q04DX003 (ip), vehicle: Klucel (hydroxypropylcellulose) (HPC)
[17] = dose: 400.0 mg/kg/injection, schedule: Q04DX003 (ip), vehicle: Klucel (hydroxypropylcellulose) (HPC)
[18] = dose: 100.0 mg/kg/injection, schedule: Q04DX003 (ip), vehicle: saline with Tween-80
[19] = dose: 200.0 mg/kg/injection, schedule: Q04DX003 (ip), vehicle: saline with Tween-80
[20] = dose: 400.0 mg/kg/injection, schedule: Q04DX003 (ip), vehicle: saline with Tween-80
[21] = dose: 100.0 mg/kg/injection, schedule: Q04DX002 (ip), vehicle: Klucel (hydroxypropylcellulose) (HPC)
[22] = dose: 400.0 mg/kg/injection, schedule: Q04DX002 (ip), vehicle: Klucel (hydroxypropylcellulose) (HPC)
[23] = dose: 100.0 mg/kg/injection, schedule: Q04DX002 (ip), vehicle: saline with Tween-80
[24] = dose: 200.0 mg/kg/injection, schedule: Q04DX002 (ip), vehicle: saline with Tween-80
[25] = dose: 400.0 mg/kg/injection, schedule: Q04DX002 (ip), vehicle: saline with Tween-80

Measured: T/C

O=C(Nc1ccc(C(=O)O)c(O)c1)c1ccccc1
inactive: dose: 100.0 mg/kg/injection, schedule: Q01DX001 (ip), vehicle: acetone 96 % of control | dose: 100.0 mg/kg/injection, schedule: Q04DX003 (ip), vehicle: saline sonified 98 % of control | dose: 200.0 mg/kg/injection, schedule: Q01DX001 (ip), vehicle: acetone 97 % of control | dose: 200.0 mg/kg/injection, schedule: Q04DX003 (ip), vehicle: saline sonified 101 % of control | dose: 400.0 mg/kg/injection, schedule: Q01DX001 (ip), vehicle: acetone 97 % of control | dose: 400.0 mg/kg/injection, schedule: Q04DX003 (ip), vehicle: saline sonified 101 % of control

COCCC(=O)COC
inactive: dose: 50.0 mg/kg/injection, schedule: Q01DX001 (ip), vehicle: saline 97 % of control | [1] 95 % of control | [2] 91 % of control | [3] 95 % of control

COc1ccc(/C=N/NC(=O)c2ccccc2NC(=O)c2ccccc2Cl)cc1
inactive: [4] 91 % of control | [5] 107 % of control and 91 % of control | [6] 102 % of control | [7] 98 % of control and 91 % of control

COC(=O)CCc1ccc(OC)cc1
inactive: dose: 100.0 mg/kg/injection, schedule: Q04DX003 (ip), vehicle: other 100 % of control | dose: 200.0 mg/kg/injection, schedule: Q04DX003 (ip), vehicle: other 99 % of control | dose: 400.0 mg/kg/injection, schedule: Q04DX003 (ip), vehicle: other 106 % of control

CC(C)(C)CC(C)(C)NS(=O)(=O)NC(C)(C)CC(C)(C)C
inactive: [8] 103 % of control | [9] 93 % of control | [10] 92 % of control

CC(C)c1cc[n+](/C(C(=S)Nc2ccccc2Cl)=C(/[O-])c2ccc([N+](=O)[O-])cc2)cc1
inactive: [5] 94 % of control | [6] 97 % of control | [7] 96 % of control

Cc1cccc(C)c1NC(=O)NC/C(Br)=C/Br
inactive: dose: 75.0 mg/kg/injection, schedule: Q01DX009 (ip), vehicle: Klucel (hydroxypropylcellulose) (HPC) 100 % of control | dose: 150.0 mg/kg/injection, schedule: Q01DX009 (ip), vehicle: Klucel (hydroxypropylcellulose) (HPC) 100 % of control | dose: 300.0 mg/kg/injection, schedule: Q01DX009 (ip), vehicle: Klucel (hydroxypropylcellulose) (HPC) 104 % of control

COc1ccc(CCN)cc1OC
inactive: [11] 106 % of control | [12] 100 % of control | dose: 400.0 mg/kg/injection, schedule: Q04DX002 (ip), vehicle: saline 100 % of control

COc1ccc(C=C2C(=O)NC(=O)NC2=O)cc1OC
inactive: [4] 92 % of control | [5] 96 % of control | [6] 96 % of control

COc1ccc(OC)c2ncccc12
inactive: [1] 104 % of control

CCOCC1c2ccccc2CCN1Cc1c[nH]c2ccccc12 (stereo unspecified)
inactive: dose: 50.0 mg/kg/injection, schedule: Q01DX001 (ip), vehicle: carboxymethylcellulose (CMC) 97 % of control | [13] 89 % of control | [14] 90 % of control

COc1cc2c(cc1OC)C(Cc1ccc([N+](=O)[O-])cc1)=[N+](C)CC2
inactive: [13] 103 % of control | [14] 105 % of control | dose: 400.0 mg/kg/injection, schedule: Q01DX001 (ip), vehicle: carboxymethylcellulose (CMC) 108 % of control

Nc1ccc2c(=O)[nH][nH]c(=O)c2c1
inactive: [8] 98 % of control | [9] 98 % of control | [10] 95 % of control

O=C(NCc1ccncc1)Nc1ccccc1Cl
inactive: [11] 97 % of control | [12] 87 % of control

Cc1cc(OCCBr)ccc1[N+](=O)[O-]
inactive: dose: 100.0 mg/kg/injection, schedule: Q01DX001 (ip), vehicle: Klucel (hydroxypropylcellulose) (HPC) 92 % of control | dose: 200.0 mg/kg/injection, schedule: Q01DX001 (ip), vehicle: Klucel (hydroxypropylcellulose) (HPC) 95 % of control | dose: 400.0 mg/kg/injection, schedule: Q01DX001 (ip), vehicle: Klucel (hydroxypropylcellulose) (HPC) 95 % of control

Cc1ccc(S(=O)(=O)N/N=C2/C3CC4C(C3)C24)cc1
inactive: [1] 90 % of control | [2] 88 % of control | dose: 200.0 mg/kg/injection, schedule: Q01DX009 (ip), vehicle: saline 92 % of control | [3] 103 % of control

CC1(C)C2CC3C(=CCCC3C(=O)O)C1C2 (stereo unspecified)
inactive: [15] 97 % of control | [16] 103 % of control | [17] 95 % of control

CC(=O)N(C)c1ccc(NC2=NCCO2)cc1
inactive: [18] 98 % of control | [19] 101 % of control | [20] 98 % of control

Cc1ccccc1NC(=O)Oc1ccc2ccccc2c1
inactive: [21] 106 % of control | dose: 200.0 mg/kg/injection, schedule: Q04DX002 (ip), vehicle: Klucel (hydroxypropylcellulose) (HPC) 103 % of control | [22] 106 % of control

NS(=O)(=O)c1ccc(NC(=O)Nc2ccccc2F)cc1
inactive: dose: 100.0 mg/kg/injection, schedule: Q01DX001 (ip), vehicle: saline with Tween-80 102 % of control | [8] 98 % of control and 104 % of control | [23] 93 % of control and 97 % of control | dose: 200.0 mg/kg/injection, schedule: Q01DX001 (ip), vehicle: saline with Tween-80 101 % of control | [9] 93 % of control and 102 % of control | [24] 98 % of control and 105 % of control | dose: 400.0 mg/kg/injection, schedule: Q01DX001 (ip), vehicle: saline with Tween-80 90 % of control | [10] 98 % of control and 102 % of control | [25] 96 % of control and 97 % of control

CC1(C)CNC(=O)O1
inactive: [1] 108 % of control | [2] 111 % of control | [3] 100 % of control

O=C(Nc1ccc(Cl)cc1C(=O)c1ccccc1)c1ccc(Cl)cc1Cl
inactive: [21] 103 % of control | [22] 89 % of control

O=C(CNCc1ccccc1)NC(Cc1ccccc1)c1ccccc1 (stereo unspecified)
inactive: [15] 96 % of control | [18] 101 % of control | [16] 93 % of control | [19] 94 % of control | [17] 94 % of control | [20] 94 % of control

CSc1ncnc2c1ncn2CC(=O)C1CCC2C3CCC4=CC(=O)CCC4(C)C3CCC12C (stereo unspecified)
inactive: dose: 100.0 mg/kg/injection, schedule: Q01DX001 (sc), vehicle: steriod suspending solution 99 % of control | dose: 200.0 mg/kg/injection, schedule: Q01DX001 (sc), vehicle: steriod suspending solution 100 % of control | dose: 400.0 mg/kg/injection, schedule: Q01DX001 (sc), vehicle: steriod suspending solution 99 % of control

COc1ccc(CCN2C(=O)c3cccc4c(Sc5ccccc5[N+](=O)[O-])ccc(c34)C2=O)cc1OC
inactive: [23] 90 % of control | [24] 111 % of control | [25] 93 % of control
